Source: patent US9897592B2, “Methods for identifying arthropod repellents and attractants, and compounds and compositions identified by such methods” (The Regents of the University of California, priority 2013, dated 2018)

Assays:
C. quinquefasciatus = test: Semi-field two-choice greenhouse trapping; assay type: in vivo, Culex quinquefasciatus
Description: FIG. 4g is a schematic of two-choice greenhouse experiments with two counterflow geometry traps, in which mosquitoes were trapped overnight in odorant-baited and solvent (water)-baited traps.
Semi-field trapping: Two modified greenhouses at the Agricultural Experiment Station at the University of California, Riverside, were used as described previously^2, with modifications. Fifty laboratory-reared, mated, non-blood fed female C. quinquefasciatus aged 8-14 days and starved for 24 hrs were released each evening around 5 pm and traps collected at ˜7 am. Counter flow geometry traps baited with CO2 (250 ml min^−1, ˜670 mmol/hr) odorant were used as described^2, with modifications. Odorant solutions in water were dispensed from 20 cm long gauze wicks protruding from uncapped 50 ml tubes beneath the trap outflow. For each trial, one baited trap and one control trap (water-filled) were placed in each of two greenhouses (FIG. 4g). For two-choice CO2 trials, water was placed under both traps. For two-choice ethyl pyruvate trials, both traps expelled CO2, and one trap also released ethyl pyruvate from an open 2.8×7 cm glass vial. Since ethyl pyruvate has very low volatility pure compound was used to generate ˜1.7 mmol/hr. An empty vial was placed under control traps. Treatment position and trap were alternated across trials. Volume of solution lost from tubes containing 5%, 10%, or 20% cyclopentanone were measured after each trial and the average loss of molecules calculated respectively for 3 concentrations as (±s.d.) of 0.7 (±0.1), 1.7 (±0.4), and 3.8 (±0.3) mmol/hr, respectively. Preference index=(# mosquitoes in odor-baited trap−# mosquitoes in control trap)/(total # mosquitoes caught in both traps).
The efficacy of cyclopentanone as a lure was tested using traps in controlled semi-field experiments with C. quinquefasciatus, a mosquito present in Southern California, where the experiments took place. 50 female mosquitoes were released overnight in a modified greenhouse that contained two counter-flow geometry mosquito traps (FIG. 4g). One trap was baited with an evaporative lure of cyclopentanone diluted in water, and the second trap was baited with water alone.

A. aegypti [1] = test: Hand-in-cage repellency assay; assay type: in vivo, Aedes aegypti; settings: mesh treated 500 μl, 10% in acetone
Description: FIG. 4c depicts representative images (left) of hand-in-cage assay mesh window and a graph (right) illustrating the mean number of mosquitoes on the netting at the indicated time points for ethyl pyruvate-treated or solvent-treated netting. n=8 each.
Forty 4-10-day-old female A. aegypti were starved 24 hrs and released in a 30×30 cm cage with a glass top, and trials commenced between 1400 and 1700 hrs. A human hand wearing a nitrile glove (Sol-vex) with a 7×6 cm window covered by two layers of fine polyester mesh (BioQuip, mesh size 26×22 holes per in^2) held in place by magnetic spacers, was inserted into the cage. The lower mesh was 1.5 mm above, and upper mesh was 6 mm above the hand. While skin emanations passed freely through the mesh window, the hand was protected from contact with mosquitoes and treated mesh. The outside mesh was treated with ethyl pyruvate (500 μl, 10% in acetone) or solvent. After letting solvent evaporate the glove was assembled. […] Trials were video recorded and mosquitoes on the mesh were counted every 15 s.
An arm-in-cage repellency assay was used in this Example using gloves with chemical treated mesh-covered windows to quantify attraction of A. aegypti mosquitoes to the human hand without exposing the hand to mosquito bites or skin to contact with test chemicals.

cpA neuron [2] = test: Single-sensillum recording: activation of cpA neuron by odorants; assay type: cell-based, Aedes aegypti; settings: A. aegypti cpA, 0.5-s pulses, odorants 10^−2 in paraffin oil or water, solvent response subtracted
Procedure: FIG. 3b depicts representative traces and mean responses of the A. aegypti cpA neuron to 0.5-s pulses of 138 predicted compounds screened using single-sensillum recordings, in which odorants were diluted to 10^−2 in paraffin oil or water, and responses to solvent have been subtracted, n=2-6, and error bars are s.d.
FIG. 5f is a bar graph illustrating the mean responses of the A. aegypti cpA neuron to 0.5-s pulses of 22 newly predicted compounds screened as in FIG. 3b, where salmon bars correspond to odorants found in human odor, odorants were diluted to 10^−2 in paraffin oil or water, and responses to solvent have been subtracted, and n=2-5.
Adult female A. aegypti (Linnaeus 1762) (Rockefeller strain) A. gambiae sensu stricto Giles 1902 (G3 strain), or C. quinquefasciatus Say 1823 were tested 3-12 days post-emergence with single-sensillum extracellular recordings. Chemicals were obtained from Sigma-Aldrich at the highest purity (typically >99%) and were dissolved in paraffin oil or water. […] Response to clean beads was subtracted from the results reported. Only sensilla with cpA activity of <20 spikes s^−1 to negative control were considered for analysis.
(§1) CpA-off and sham treated mosquitoes were pre-treated for 3 min in an upended 1 L glass dish in which 100 μl of fresh butyryl chloride (1%) or paraffin oil was allowed to vaporize for 10-20 min. The odor delivery system for different screens is shown in FIG. 7b; solvent responses during the same recording session were subtracted. Inhibition screen was tested. For the ultra-prolonged activator the 3-s stimulus was delivered from a 10 ml disposable pipette using a CS-55 stimulus controller (Syntech), CO2 was delivered, and responses to subsequent odor stimuli were calculated by subtracting baseline activity 1 s prior to each stimulus. When responses to repeated pulses of cyclopentanone and CO2 were compared, baseline activity between seconds 5 and 6 following each stimulus was subtracted. Spike counting was done manually or with Igor Pro6.2 (Wavemetrics) with the Neuromatic v2.00 macro (by Jason Rothman), and peak-to-peak spike amplitudes for FIG. 8 were analysed in Clampfit 10.3 (Molecular Devices).
From the large list of cpA receptor ligands predicted from Example 3 above, 138 compounds were selected based on desirable criteria for application such as smell, presence in natural sources, human safety profile, and cost to procure. These compounds were tested individually using single-sensillum electrophysiology on the cp sensillum of female A. aegypti, according to the procedure described in Example 1 above.

cpA neuron [3] = test: Ethyl pyruvate overlaid on foot odor stimulus, cpA response; assay type: cell-based, Aedes aegypti; settings: presented together, 1-s 10^−2 on 2-s foot odor
Description: FIG. 4b depicts representative trace and mean response when a 1-s stimulus of ethyl pyruvate (10^−2) is overlaid on a 2-s stimulus of foot odor (mixed beads from Person 1 and Person 2), where n=6.
The cpA inhibitor ethyl pyruvate was selected for testing since it is listed as a GRAS compound, is approved as a flavor agent in food, and has a pleasant smell (fruity, sweet, rum, caramel) (Table 3 above).

cpA neuron [4] = test: Inhibition screen: odorant overlaid on 0.15% CO2 stimulus, cpA response; assay type: cell-based, Aedes aegypti; settings: for % Inhibition: 1-s odorant stimulus (10^−2) in the middle of a 3-s 0.15% CO2 stimulus, vs solvent overlay
Procedure: Percent inhibition was calculated by comparing mean odorant overlay responses to mean solvent overlay responses, and error bars are s.d.
as §1

cpA neuron [5] = test: Ultra-prolonged activation: cpA firing after 3-s odorant exposure; assay type: cell-based, Aedes aegypti
Description: FIG. 3d depicts representative traces from the A. aegypti cp sensillum to 1-s pulses of 0.15% CO2 prior to and following a 3-s exposure to either solvent (paraffin oil) or (E)-2-methylbut-2-enal (10^−1).
FIG. 3e is a graph illustrating the cpA baseline activity in the 1 s prior to each stimulus is elevated following exposure to odorant, where error bars are s.e.m.
FIG. 3f is a bar graph illustrating the mean responses of the cpA neuron to 1-s pulses of 0.15% CO2, calculated by subtracting the 1 s of the baseline activity prior to each stimulus, where n=5-6 individuals, analysed by t-test, ***p<0.001, and error bars are s.e.m.
as §1

CO2 receptor = settings: cited from earlier work
cpA neuron [6] = test: Butyryl chloride pre-exposure (cpA-off): cp sensillum responses to CO2, skin odorants, foot odor; assay type: cell-based, Aedes aegypti
Description: FIG. 2b depicts representative cp responses to 0.5-s pulses of indicated odorants after a 3-min pre-exposure to butyryl chloride (10^−2) (cpA-off) or solvent (sham treatment).
FIG. 2c is a bar graph illustrating the mean odorant-evoked responses of the cpA neuron in cpA-off and sham treated mosquitoes, and FIG. 2d is a bar graph illustrating the combined odor-evoked responses of two neighbouring neurons, cpB and cpC, where for both of these figures, n=6 individuals, 1-4 sensilla surveyed per individual; analysed by nested ANOVA, and baseline refers to cpA activity in the presence of room air.
as §1

antennal neurons = test: Electroantennogram (EAG) after butyryl chloride treatment; assay type: cell-based, Aedes aegypti
Procedure: FIG. 2e is a graph illustrating averaged traces and FIG. 2f is a graph illustrating mean electroantennograph (EAG) responses to air puffed over glass beads laden with foot odor or a clean bead control, where EAG peaks are normalized to 3-methyl-1-butanol response, n=9, and analysed by t-test.
FIG. 9d illustrates EAG responses normalized to the reference odor 3-methyl-1-butanol. No significant differences due to treatment (n=9; t-test).
Standard whole-antenna recordings were performed with minor modifications. Traces were averaged using Clampfit software (Molecular Devices), and responses were normalized to interspersed pulses of a reference odorant, 3-methyl-1-butanol, according to the formula: Raw response (mV)/(ax+by), where a and b are the responses (mV) to the immediately previous and subsequent reference odor stimulation, respectively, and x and y are the proportion of time elapsed between stimuli (so that x+y=1).

A. aegypti [7] = test: Wind tunnel assay of attraction to human foot odor beads; assay type: in vivo, Aedes aegypti
Procedure: FIG. 2h is a schematic of wind tunnel assay, where human odor was provided by a dish of glass beads that had been worn in socks for ˜6 hrs (Person 1), and flight behaviour of individual female mosquitoes was recorded for 5 min or until they landed on the beads.
FIGS. 2i-k are bar graphs illustrating the proportion of butyryl chloride pre-exposed and sham treated mosquitoes presented with beads with no odor or foot odor that landed on beads (FIG. 2i), that took off from the release cage (FIG. 2j), and that did take off that succeeded in landing on the beads (FIG. 2k), where n=20-23 individuals per condition, analysed by one-tailed proportion Z-test, *p<0.05, **p<0.01, ***p<0.001, and error bars are s.e.m. All odorants except CO2 were dissolved in paraffin oil at 10^−2 except where indicated. […]

A. aegypti [8] = test: Short-range attraction to heat and humidity; assay type: in vivo, Aedes aegypti; settings: after pre-exposure; control for general deficits
Procedure: FIG. 9f illustrates mosquitoes' tendency to rest at the top surface of the cage increased in the presence of a warm, wet stimulus. […] No significant differences due to treatment (n=6 replicates; Mann-Whitney rank-sum test).
Ten 6-day-old female A. aegypti were starved 30 hrs in a 7 cm diameter×˜5 cm high cage with wire mesh on one side and placed inside an aquarium. After 5 min a beaker with 750 ml warm water (40° C.) and filter paper soaked with 400 μl water were placed 5 mm above the cage (FIG. 9e). CpA-off and sham treated mosquitoes were video-recorded and counted at 30 s intervals.

**Q.** What does the source list for `CCOC(=O)C(C)=O` [ethyl 2-oxopropanoate]?
**A.** catch of CO2-baited trap also dispensing odorant vs control CO2-baited trap (C. quinquefasciatus; pure compound, ~1.7 mmol/hr): significantly fewer mosquitoes; number of times mosquitoes landed on mesh over human hand (A. aegypti [1]): substantially reduced; Activation (spikes s^−1) (cpA neuron [2]): −63.0 spikes s^−1; response of cpA neuron to human foot odor (cpA neuron [3]): completely eliminates; inhibition of cpA activity (cpA neuron [4]; overlaid on 0.15% CO2): strongly inhibited

**Q.** What does the source list for `CC(O)C(=O)O` (stereo not shown) [2-hydroxypropanoic acid]?
**A.** catch vs control traps (C. quinquefasciatus; 10% lactic acid bait): did not catch significantly more mosquitoes; Activation (spikes s^−1) (cpA neuron [2]): −1.0 spikes s^−1

**Q.** Which results are given for `CC(C)CS` [2-methylpropane-1-thiol]?
**A.** Activation (spikes s^−1) (cpA neuron [2]): 37.0 spikes s^−1; % Inhibition (cpA neuron [4]): −2.9%

**Q.** With `C/C=C(\C)C=O` [(E)-2-methylbut-2-enal] as the compound, how does the “duration of sustained firing of cpA” value (cpA neuron [5]; after 3-s exposure) read?
**A.** at least 5.5 min

**Q.** And the “sustained firing of cpA” value (cpA neuron [5]; after 3-s exposure (10^−1))?
**A.** ~45 spikes s^−1

**Q.** And the “cpA responses to 1-s pulses of 0.15% CO2 relative to controls” value (cpA neuron [5]; during sustained firing period)?
**A.** significantly reduced

**Q.** What about the “Activation (spikes s^−1)” value (cpA neuron [2]) of the same compound?
**A.** 59.5 spikes s^−1

**Q.** Which “inhibition of the CO2 receptor” value (CO2 receptor) does the source give for `CCCC(=O)O` [butanoic acid] here?
**A.** strongest known inhibitors

**Q.** Which “Activation (spikes s^−1)” value (cpA neuron [2]) does the source give for `c1cn[nH]c1` [1H-pyrazole] here?
**A.** 3.5 spikes s^−1

**Q.** What about the “% Inhibition” value (cpA neuron [4]) of the same compound?
**A.** 4.9%

**Q.** What does the source list for `CCCC(=O)Cl` [butyryl chloride]?
**A.** cpA subsequent responses to 1% CO2 (cpA neuron [6]; 3-min exposure to 10^−2 volatiles, tested ~5-20 min after exposure): completely abolished; cpA responses to activating skin odorants (cpA neuron [6]; after 3-min pre-exposure): substantially reduced; time to recovery of cpA to control levels after treatment (cpA neuron [6]; after 3-min pre-exposure): 12 to 24 h; odor-evoked responses of cpB and cpC neurons (cpA neuron [6]; after treatment, selectivity for cpA): not reduced; cpA firing in response to subsequent CO2 stimuli (cpA neuron [6]; single puff of 1% butyryl chloride): inhibits cpA from firing; cpA response to foot odor collected on beads (cpA neuron [6]; tested ~5-20 min after exposure): completely lost; summed responses of antennal neurons to panel of skin odorants (EAG) (antennal neurons; after treatment): unaffected; summed response of antennal neurons to foot odor (EAG) (antennal neurons; with or without treatment): not statistically different; proportion of mosquitoes that initiated upwind flight from release cage (A. aegypti [7]; after pre-exposure (cpA-off)): greatly reduced; proportion of mosquitoes that landed on human odor beads (A. aegypti [7]; after pre-exposure, 5-min assay): substantially reduced; ability or preference for resting at top of cage, warm moist stimulus (A. aegypti [8]): did not impair

**Q.** With `CC(C)C=O` [2-methylpropanal] as the compound, how does the “Activation (spikes s^−1)” value (cpA neuron [2]) read?
**A.** 29.0 spikes s^−1

**Q.** And the “% Inhibition” value (cpA neuron [4])?
**A.** 5.8%

**Q.** Which “Activation (spikes s^−1)” value (cpA neuron [2]) does the source give for 2-ethyl-5(6)-methylpyrazine here?
**A.** 14.0 spikes s^−1

**Q.** What about the “% Inhibition” value (cpA neuron [4]) of the same compound?
**A.** −2.0%

**Q.** Which “inhibition of the CO2 receptor” value (CO2 receptor) does the source give for `CCCC=O` [butyraldehyde] here?
**A.** strongest known inhibitors

**Q.** For `CC(=O)C=O` [2-oxopropanal], which “Activation (spikes s^−1)” value (cpA neuron [2]) is on record?
**A.** −2.0 spikes s^−1

**Q.** And the “% Inhibition” value (cpA neuron [4])?
**A.** −33.6%
